What was measured:
[1] = Apoptogenic activity against K-422 cells after 24 hr treatment at concentration 30 uM; type: functional, cell-based; settings: Homo sapiens
[2] = Apoptogenic activity against Molt cells after 24 hr treatment at concentration 30 uM; type: functional, cell-based; settings: Homo sapiens
Homo sapiens = species on record: Homo sapiens; assay: Apoptogenic activity against peripheral blood lymphocytes after 24 hr treatment at concentration 30 uM; type: functional
[3] = Aoptogenic activity against Molt cells after 24 hr treatment at concentration 30 uM; type: functional, cell-based; settings: Homo sapiens

In the case of `CCCCCCCCC[C@H](F)[C@H](CO)NC(=O)CCCCC`, the Cells [1] is reported as 32%, the Cells [2] is reported as 31.6% and the Cells (Homo sapiens) is reported as 46%.

Molecule `CCCCCCCCCCCCC/C=C/[C@@H](O)[C@H](CO)NC(C)=O` has a Cells [1] of 27.7%, a Cells [2] of 51% and a Cells (Homo sapiens) of 48.8%.

Work on `CCCCCCCCC[C@H](O)[C@H](CO)NC(=O)CCCCC` yielded a Cells [1] of 15%, a Cells [2] of 9% and a Cells (Homo sapiens) of 57%.

`CCCCCCCCC[C@H](F)[C@H](CO)NC(C)=O` showed a Cells [1] of 7.3%, a Cells [3] of 3% and a Cells (Homo sapiens) of 3%.

`CCCCCCC/C=C/[C@@H](O)[C@H](CO)NC(=O)CCCCC` showed a Cells [1] of 12.7%, a Cells [2] of 3.5% and a Cells (Homo sapiens) of 12%.

For `CCCCCCC/C=C/[C@@H](F)[C@H](CO)NC(=O)CCCCC`, the Cells [1] was 34.7%, the Cells [2] was 11% and the Cells (Homo sapiens) was 40%.

With `CCCCCCC/C=C/[C@H](O)[C@H](CO)NC(=O)CCCCC` the Cells [1] was 32.7%, the Cells [2] was 1% and the Cells (Homo sapiens) was 33.5%.

For `CCCCCCC/C=C/[C@H](F)[C@H](CO)NC(=O)CCCCC`, the Cells [1] was 51.2%, the Cells [2] was 13.7% and the Cells (Homo sapiens) was 47.7%.

With `CCCCCC(=O)N[C@@H](CO)[C@@H](F)CCc1ccccc1` the Cells [1] was 2.5%, the Cells [2] was 2% and the Cells (Homo sapiens) was 0.5%.

Reference: ChEMBL document CHEMBL1131874, “Synthesis and apoptogenic activity of fluorinated ceramide and dihydroceramide analogues” (1999)
